# Measurements as given in paper PMC7017409 (ACS Omega, 2020).
# Target: T1, electric eel AChE (eeAChE) (Electrophorus electricus, UniProt O42275)
# T1 construct: purchased type VI-S
# Assay: biochemical
# Format: biochemical
# Protocol: A UV–vis spectrophotometry-based assay was conducted to calculate the IC50 values for the diastereomeric mixtures (Table 6), according to Ellman et al.[37] and Mohamed et al.[38]
# All of these solutions were prepared freshly directly before the assay was run. In 96-well plates, 160 μL of the 1.5 mM DTNB solution was first added, followed by 10 μL of different concentrations of test compounds. Then, a 0.22 U/mL enzyme solution was added (50 μL) and incubated at room temperature for 7 min. The background absorbance was measured at a wavelength of 412 nm on a POLARstar OPTIMA (BMG Labtech) microplate reader. The addition of 30 μL of the 15 mM ATCI solution initiated the enzymatic reaction, and the time elapsed between the beginning of the pipetting and the first measurement (t = 0) was noted and kept consistently at 2 min. Further kinetic measurements were made at different time intervals (t = 1, 2, 3, 4, 5 min) after a short episode of shaking (10 s). Each experiment was carried out in triplicate. Various control incubations containing 10 μL of methanol were run alongside the test compounds on each plate.
# T1 sequence (O42275 24-633): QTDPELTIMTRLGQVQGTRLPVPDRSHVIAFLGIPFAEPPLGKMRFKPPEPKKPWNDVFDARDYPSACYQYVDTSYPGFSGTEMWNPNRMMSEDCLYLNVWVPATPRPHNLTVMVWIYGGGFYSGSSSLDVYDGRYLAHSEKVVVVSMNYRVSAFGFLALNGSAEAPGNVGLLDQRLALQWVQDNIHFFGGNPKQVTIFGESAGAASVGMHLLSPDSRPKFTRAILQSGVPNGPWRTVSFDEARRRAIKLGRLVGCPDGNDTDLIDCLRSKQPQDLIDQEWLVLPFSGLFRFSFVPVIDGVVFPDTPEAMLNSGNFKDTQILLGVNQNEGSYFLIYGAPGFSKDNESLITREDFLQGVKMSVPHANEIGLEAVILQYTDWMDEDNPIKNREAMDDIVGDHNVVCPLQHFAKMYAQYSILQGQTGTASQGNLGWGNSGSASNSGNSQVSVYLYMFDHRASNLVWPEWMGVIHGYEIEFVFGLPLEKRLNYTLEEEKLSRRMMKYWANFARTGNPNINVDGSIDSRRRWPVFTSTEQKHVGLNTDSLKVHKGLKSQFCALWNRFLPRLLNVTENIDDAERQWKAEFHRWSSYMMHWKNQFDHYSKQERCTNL
SMILES,IC50 [µM],"times more active than the 2R,4S-anti-substituted analogues 4 + 4′c (IC50 ratio) (eeAChE IC50, syn versus anti)",times less active than donepezil 1 (IC50 ratio) (eeAChE IC50 compared with donepezil 1)
"COc1cc2c(cc1OC)C(=O)C(C[C@@H]1CCN([C@@H](C)c3ccccc3)[C@H](C)C1)C2 (stereo partly drawn) [2R,4R-4+4’d, R-5,6-Dimethoxy-2-((2R,4R-2-methyl-1-(S-1-phenylethyl)piperidin-4-yl)-methyl)-2,3-dihydro-1H-inden-1-one (4d) and S-5,6-Dimethoxy-2-((2R,4R-2-methyl-1-(S-1-phenylethyl)piperidin-4-yl)-methyl)-2,3-dihydro-1H-inden-1-one (4′d)]",13.1 ± 0.47,–,–
"COc1cc2c(cc1OC)C(=O)C(C[C@H]1CCN([C@@H](C)c3ccccc3)[C@H](C)C1)C2 (stereo partly drawn) [2R,4S-4+4’c, R-5,6-Dimethoxy-2-((2R,4S-2-methyl-1-(S-1-phenylethyl)piperidin-4-yl)-methyl)-2,3-dihydro-1H-inden-1-one (4c) and S-5,6-Dimethoxy-2-((2R,4S-2-methyl-1-(S-1-phenylethyl)piperidin-4-yl)-methyl)-2,3-dihydro-1H-inden-1-one (4′c)]",24.3 ± 1.32,–,–
"COc1cc2c(cc1OC)C(=O)C(C[C@@H]1CCN([C@@H](C)c3ccccc3)[C@@H](C)C1)C2 (stereo partly drawn) [2S,4R-4+4’b, R-5,6-Dimethoxy-2-((2S,4R-2-methyl-1-(S-1-phenylethyl)piperidin-4-yl)-methyl)-2,3-dihydro-1H-inden-1-one (4b) and S-5,6-Dimethoxy-2-((2S,4R-2-methyl-1-(S-1-phenylethyl)piperidin-4-yl)-methyl)-2,3-dihydro-1H-inden-1-one (4′b)]",8.82 ± 0.21,–,–
"COc1cc2c(cc1OC)C(=O)C(C[C@H]1CCN([C@@H](C)c3ccccc3)[C@@H](C)C1)C2 (stereo partly drawn) [2S,4S-4+4’a, R-5,6-Dimethoxy-2-((2S,4S-2-methyl-1-(S-1-phenylethyl)piperidin-4-yl)-methyl)-2,3-dihydro-1H-inden-1-one (4a) and y-5,6-Dimethoxy-2-((2S,4S-2-methyl-1-(S-1-phenylethyl)piperidin-4-yl)-methyl)-2,3-dihydro-1H-inden-1-one (4′a)]",1.01 ± 0.03,approximately 24 times,–
"COc1cc2c(cc1OC)C(=O)C(CC1CCN([C@@H](C)c3ccccc3)CC1)C2 (stereo partly shown) [19+19’, R-5,6-Dimethoxy-2-((1-(S-1-phenylethyl)piperidin-4-yl)methyl)-2,3-dihydro-1H-inden-1-one (19) and S-5,6-Dimethoxy-2-((1-(S-1-phenylethyl)piperidin-4-yl)methyl)-2,3-dihydro-1H-inden-1-one (19′)]",1.83 ± 0.04,–,approximately 27 times
